According to patent publication US6737383B1, “Herbicidal oxadiazolidines” (priority 1999, dated 2004):

Columns and labels:
[1] = system: pigweed; assay: Test B pre/postemergence pigweed; type: in vivo, Amaranthus retroflexus
In short: (§1)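 Herbicidal effect was estimated by eye on a ten-point control scale after plants spent twelve to sixteen days in a greenhouse following soil or foliar treatment. Foliar sprays targeted plants at one to four leaves; all doses were formulated in a non-phytotoxic solvent with surfactant.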

[2] = system: sugar beet; assay: Test B pre/postemergence sugar beet; type: in vivo, Beta vulgaris
In short: as §1

[3] = system: purple nutsedge; assay: Test B pre/postemergence purple nutsedge; type: in vivo, Cyperus rotundus
In short: as §1

[4] = system: rice; assay: Test B flood test rice; type: in vivo, Oryza sativa
In short: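 Flood test on plants grown to the 2-leaf stage; treated plants kept in greenhouse twelve to sixteen days, then visually rated against controls on a 0 (no effect) to 10 (complete control) scale.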

[5] = system: winter wheat; assay: Test E winter wheat; type: in vivo, Triticum aestivum; details: Postemergence
In short: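 Visual evaluation versus untreated controls after about 21 to 28 days in the greenhouse. Compound was in a surfactant-containing non-phytotoxic solvent; postemergence plants were treated at the 1- to 4-leaf stage, grown in a 60:40 sandy loam and potting mix blend.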

[6] = system: blackgrass; assay: Test E blackgrass; type: in vivo, Alopecurus myosuroides; details: Preemergence
[7] = system: green foxtail; assay: Test E green foxtail; type: in vivo, Setaria viridis; details: Preemergence
[8] = system: Italian ryegrass; assay: Test E Italian ryegrass; type: in vivo, Lolium multiflorum; details: Preemergence
[9] = system: winter wheat; assay: Test E winter wheat; type: in vivo, Triticum aestivum; details: Preemergence
[10] = system: wild oat; assay: Test E wild oat; type: in vivo, Avena fatua; details: Preemergence
[11] = system: winter barley; assay: Test E winter barley; type: in vivo, Hordeum vulgare; details: Preemergence
[12] = Preemergence, Rate 62 g/ha, scale of 0 to 10 where 0 is no effect and 10 is complete control
[13] = Preemergence, Rate 250 g/ha, scale of 0 to 10 where 0 is no effect and 10 is complete control
[14] = Preemergence, Rate 500 g/ha, scale of 0 to 10 where 0 is no effect and 10 is complete control
[15] = Rate 125 g/ha, Postemergence, scale of 0 to 10 where 0 is no effect and 10 is complete control
[16] = Rate 125 g/ha, Preemergence, scale of 0 to 10 where 0 is no effect and 10 is complete control
[17] = Rate 250 g/ha, Postemergence, scale of 0 to 10 where 0 is no effect and 10 is complete control
[18] = Rate 500 g/ha, Postemergence, scale 0 to 10, 0 no effect, 10 complete control
[19] = Rate 62 g/ha, headed Pre-emergence (flood test species), scale 0 to 10 (0 no effect, 10 complete control)
[20] = Rate 125 g/ha, Pre-emergence, flood test species, scale 0 to 10 where 0 is no effect and 10 is complete control
[21] = Rate 250 g/ha, Pre-emergence, flood-test species, scale 0 to 10, 0 is no effect, 10 is complete control
[22] = Rate 500 g/ha, Pre-emergence, flood test species, scale 0 to 10 (0 no effect, 10 complete control)
[23] = Rate 125 g/ha, 0 to 100 scale, 0 is no effect, 100 is complete control
[24] = Rate 250 g/ha, 0 to 100 scale where 0 is no effect and 100 is complete control
[25] = Rate 500 g/ha, 0 to 100 scale, 0 is no effect, 100 is complete control
[26] = Rate 125 g/ha, 0 to 100 scale (0 no effect, 100 complete control)
[27] = Rate 500 g/ha, 0 to 100 scale where 0 is no effect and 100 is complete control
[28] = Preemergence, Rate 31 g/ha, visual rating, scale 0 to 10 (0 no effect, 10 complete control)
[29] = Rate 31 g/ha, Postemergence, scale 0 to 10
[30] = Rate 62 g/ha, Postemergence, scale 0 to 10, 0 no effect, 10 complete control
[31] = Rate 500 g/ha, 0 to 100 scale (0 no effect, 100 complete control)
[32] = Rate 1000 g/ha, 0 to 100 scale, 0 no effect, 100 complete control

## CC(C)N(C(=O)n1oc(=O)n(CC(C)(C)C)c1=O)c1ccccc1 [Compound 276]
[1]; [12]
  Redroot pigweed plant response rating: 0
[1]; [13]
  Redroot pigweed plant response rating: 2
[1]; [14]
  Plant response rating, Redroot pigweed: 4
[1]; [15]
  Redroot pigweed plant response rating: 0
[1]; [16]
  Redroot pigweed plant response rating: 0
[1]; [17]
  Plant response rating, Redroot pigweed: 1
[1]; [18]
  Redroot pigweed plant response rating: 2
[2]; [12]
  Sugarbeets plant response rating: 0
[2]; [13]
  Sugarbeets plant response rating: 1
[2]; [14]
  Plant response rating, Sugarbeets: 7
[2]; [15]
  Sugarbeets plant response rating: 0
[2]; [16]
  Sugarbeets plant response rating: 1
[2]; [17]
  Plant response rating, Sugarbeets: 2
[2]; [18]
  Sugarbeets plant response rating: 2
[3]; [12]
  Nutsedge plant response rating: 0
[3]; [15]
  Nutsedge plant response rating: 0
[3]; [16]
  Nutsedge plant response rating: 0
[3]; [17]
  Plant response rating, Nutsedge: 0
[3]; [18]
  Nutsedge plant response rating: 0
[4]; [19]
  Rice plant response rating: 0
[4]; [20]
  Rice plant response rating: 0
[4]; [21]
  Rice plant response rating: 0
[4]; [22]
  Rice plant response rating: 0
[5]; [23]
  Plant response rating, Wheat (winter): 10
[5]; [24]
  Wheat (winter) plant response rating: 10
[5]; [25]
  Plant response rating, Wheat (winter): 20
[6]; [26]
  Plant response rating, Blackgrass: 30
[6]; Rate 250 g/ha
  Blackgrass plant response rating (0 to 100 scale): 50
[6]; [27]
  Plant response rating, Blackgrass: 50
[7]; [26]
  Plant response rating, Green foxtail: 60
[7]; Rate 250 g/ha
  Green foxtail plant response rating (0 to 100 scale): 100
[7]; [27]
  Plant response rating, Green foxtail: 98
[8]; [26]
  Plant response rating, I. Ryegrass: 30
[8]; Rate 250 g/ha
  I. Ryegrass plant response rating (0 to 100 scale): 60
[8]; [27]
  Plant response rating, I. Ryegrass: 50
[9]; [26]
  Plant response rating, Wheat (winter): 20
[9]; Rate 250 g/ha
  Wheat (winter) plant response rating (0 to 100 scale): 30
[9]; [27]
  Plant response rating, Wheat (winter): 50
[10]; [26]
  Plant response rating, Wild oat: 50
[10]; Rate 250 g/ha
  Wild oat plant response rating (0 to 100 scale): 60
[10]; [27]
  Plant response rating, Wild oat: 60
[11]; [26]
  Plant response rating, Barley (winter): 50
[11]; Rate 250 g/ha
  Barley (winter) plant response rating (0 to 100 scale): 30
[11]; [27]
  Plant response rating, Barley (winter): 50

## CC(Cl)=CCn1c(=O)on(C(=O)N(c2ccc(F)cc2)C(C)C)c1=O [Compound 285]
[1]; [28]
  Redroot pigweed plant response rating: 0
[1]; [12]
  Redroot pigweed plant response rating: 0
[1]; [13]
  Redroot pigweed plant response rating: 5
[1]; [29]
  Redroot pigweed plant response rating: 0
[1]; [30]
  Redroot pigweed plant response rating: 0
[1]; [15]
  Redroot pigweed plant response rating: 0
[1]; [16]
  Redroot pigweed plant response rating: 2
[1]; [17]
  Plant response rating, Redroot pigweed: 0
[2]; [28]
  Sugarbeets plant response rating: 0
[2]; [12]
  Sugarbeets plant response rating: 0
[2]; [13]
  Sugarbeets plant response rating: 0
[2]; [30]
  Sugarbeets plant response rating: 0
[2]; [15]
  Sugarbeets plant response rating: 2
[2]; [16]
  Sugarbeets plant response rating: 0
[2]; [17]
  Plant response rating, Sugarbeets: 3
[3]; [28]
  Nutsedge plant response rating: 0
[3]; [12]
  Nutsedge plant response rating: 0
[3]; [13]
  Nutsedge plant response rating: 0
[3]; [29]
  Nutsedge plant response rating: 0
[3]; [30]
  Nutsedge plant response rating: 0
[3]; [15]
  Nutsedge plant response rating: 0
[3]; [16]
  Nutsedge plant response rating: 0
[3]; [17]
  Plant response rating, Nutsedge: 0
[4]; Rate 31 g/ha, Pre-emergence section (flood test species), scale 0 to 10
  Rice plant response rating: 0
[4]; [19]
  Rice plant response rating: 0
[4]; [20]
  Rice plant response rating: 0
[4]; [21]
  Rice plant response rating: 0
[5]; [23]
  Plant response rating, Wheat (winter): 20
[5]; Rate 1000 g/ha, 0 to 100 scale where 0 is no effect and 100 is complete control
  Plant response rating, Wheat (winter): 30
[5]; [24]
  Wheat (winter) plant response rating: 20
[5]; [25]
  Plant response rating, Wheat (winter): 40
[6]; [26]
  Plant response rating, Blackgrass: 20
[6]; [31]
  Plant response rating, Blackgrass: 55
[6]; [32]
  Plant response rating, Blackgrass: 70
[7]; [26]
  Plant response rating, Green foxtail: 20
[7]; [31]
  Plant response rating, Green foxtail: 60
[7]; [32]
  Plant response rating, Green foxtail: 65
[8]; [26]
  Plant response rating, I. Ryegrass: 20
[8]; [31]
  Plant response rating, I. Ryegrass: 70
[8]; [32]
  Plant response rating, I. Ryegrass: 70
[9]; [26]
  Plant response rating, Wheat (winter): 30
[9]; [31]
  Plant response rating, Wheat (winter): 25
[9]; [32]
  Plant response rating, Wheat (winter): 50
[10]; [26]
  Plant response rating, Wild oat: 10
[10]; [31]
  Plant response rating, Wild oat: 20
[10]; [32]
  Plant response rating, Wild oat: 40
[11]; [26]
  Plant response rating, Barley (winter): 0
[11]; [31]
  Plant response rating, Barley (winter): 10
[11]; [32]
  Plant response rating, Barley (winter): 20

## CC(C)N(C(=O)n1oc(=O)n(C2CC2)c1=O)c1ccc(F)cc1F [Compound 299]
[1]; [12]
  Redroot pigweed plant response rating: 9
[1]; Preemergence, Rate 125 g/ha
  Redroot pigweed plant response rating (0 to 10 scale): 10
[1]; [13]
  Redroot pigweed plant response rating: 10
[1]; [14]
  Redroot pigweed plant response rating: 10
[1]; [30]
  Redroot pigweed plant response rating: 2
[1]; [15]
  Redroot pigweed plant response rating: 3
[1]; [17]
  Plant response rating, Redroot pigweed: 6
[2]; [12]
  Sugarbeets plant response rating: 3
[2]; Preemergence, Rate 125 g/ha
  Sugarbeets plant response rating (0 to 10 scale): 8
[2]; [13]
  Sugarbeets plant response rating: 9
[2]; [14]
  Sugarbeets plant response rating: 10
[2]; [30]
  Sugarbeets plant response rating: 2
[2]; [15]
  Sugarbeets plant response rating: 3
[2]; [17]
  Plant response rating, Sugarbeets: 4
[3]; [12]
  Nutsedge plant response rating: 0
[3]; Preemergence, Rate 125 g/ha
  Nutsedge plant response rating (0 to 10 scale): 0
[3]; [30]
  Nutsedge plant response rating: 0
[3]; [15]
  Nutsedge plant response rating: 0
[3]; [17]
  Plant response rating, Nutsedge: 0
[4]; [19]
  Rice plant response rating: 0
[4]; [20]
  Rice plant response rating: 0
[4]; [21]
  Rice plant response rating: 0
[4]; [22]
  Rice plant response rating: 0
[5]; [23]
  Plant response rating, Wheat (winter): 60
[5]; Rate 250 g/ha, 0 to 100 scale, 0 is no effect, 100 is complete control
  Plant response rating, Wheat (winter): 70
[6]; [26]
  Plant response rating, Blackgrass: 60
[6]; Rate 250 g/ha, 0 to 100 scale
  Plant response rating, Blackgrass: 100
[7]; [26]
  Plant response rating, Green foxtail: 100
[7]; Rate 250 g/ha, 0 to 100 scale
  Plant response rating, Green foxtail: 100
[8]; [26]
  Plant response rating, I. Ryegrass: 70
[8]; Rate 250 g/ha, 0 to 100 scale
  Plant response rating, I. Ryegrass: 85
[9]; [26]
  Plant response rating, Wheat (winter): 50
[9]; Rate 250 g/ha, 0 to 100 scale
  Plant response rating, Wheat (winter): 65
[10]; [26]
  Plant response rating, Wild oat: 65
[10]; Rate 250 g/ha, 0 to 100 scale
  Plant response rating, Wild oat: 70
[11]; [26]
  Plant response rating, Barley (winter): 40
[11]; Rate 250 g/ha, 0 to 100 scale, 0 no effect, 100 complete control
  Plant response rating, Barley (winter): 50
